The target of assay [1] is T1, NUPR1 (Homo sapiens, UniProt O60356).
T1 construct: made in house; host or cells: E. coli
T1 sequence (O60356 1-82): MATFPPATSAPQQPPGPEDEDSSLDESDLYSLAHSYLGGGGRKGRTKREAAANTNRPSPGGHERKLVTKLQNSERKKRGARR
Kind of assay: Isothermal titration calorimetry (ITC) of compound binding to NUPR1. As to conditions: 25 °C. How it is done:
Ligand binding to NUPR1 was determined with a high sensitivity isothermal titration calorimeter Auto-iTC200 (MicroCal–Malvern Instruments, Malvern UK). Protein samples and reference solutions were properly degassed and carefully loaded into the calorimetric cells to avoid bubble formation during stirring. Experiments were performed with freshly prepared buffer-exchanged protein solutions, at 25 °C in 20 mM sodium phosphate pH 7. NUPR1 20 μM solution in the calorimetric cell was titrated with 300–400 μM compound solution. A sequence of 19 injections of 2 μL volume was programmed with a stirring speed of 1000 rpm. The heat evolved after each ligand injection was obtained from the integral of the calorimetric signal. The heat due to the binding reaction was obtained as the difference between the reaction heat and the corresponding heat of dilution, the latter estimated as a constant value throughout the experiment, and included as an adjustable parameter in the analysis. Control experiments (compound injected into buffer) were performed under the same experimental conditions. The association constant (Ka) and the enthalpy change (ΔH) of the binding reaction were obtained through non-linear regression of experimental data to a model for a protein with a single ligand binding site. Experiments were performed in replicates and data were analyzed using in-house developed software implemented in Origin 7 (OriginLab, Northampton, MA).
A general note: In ITC the heat of successive injections is recorded.

Assay [2] has as its target T1, NUPR1. The experiment in a line: 2D 1H-15N HSQC NMR cross-peak broadening of NUPR1 upon compound addition. The format is binding. As to conditions: NUPR1 100 μM : compound 400 μM, 25 °C, pH 4.5. How it is done: The NMR data were acquired at 25 °C, pH 4.5 (acetate buffer), on a Bruker Avance DRX-500 spectrometer equipped with a triple-resonance probe and z-gradients. All spectra were referenced to external TSP.
The 2D ^1H-^15N heteronuclear single-quantum coherence (HSQC) spectra[42] were acquired in the phase sensitive mode for isolated ^15N-labelled NUPR1 (100 μM) or ^15N-labelled NUPR1 (100 μM) in the presence of the corresponding compound (400 μM). […] Frequency discrimination in the indirect dimensions was achieved by using the echo/antiecho-TPPI method. […] The carrier of the ^1H dimension was set at 8.00 ppm, and that of ^15N at 120 ppm. The spectral widths used were 10 and 35 ppm in the ^1H and ^15N dimensions, respectively. Water signal was suppressed with the WATERGATE sequence. Data were zero-filled to double the number of original points in both dimensions, apodized with shifted squared sine-bell functions in the two dimensions and Fourier transformed with the program TopSpin 1.2. Assignments were taken from those previously reported. The intensity of the signals from each row in the HSQC spectra was measured by using TopSpin 2.1 taking into account, as an internal reference, the intensity of the last residue of NUPR1. Only differences in intensity of a particular residue between spectra of the complex (NUPR1:Compound) and that of isolated NUPR1 larger than 10%, were considered significant.

Assay [3] relates to MiaPaCa-2 cells. The experiment in a line: Colony formation in soft agar (clonogenicity). As to conditions: 10 μM compound. Format: cell-based, human. How it is done: Colony formation assay was performed in order to measure the in vitro survival ability of a single cell to grow into a colony in an anchorage-independent growth environment. Briefly, after treating MiaPaCa-2 cells with either the compounds or DMSO (as control) for 24 and 48 h, they were seeded in DMEM complete media at a density of 7 × 10^3 cells in 6-well plates containing a top layer of 0.7% agar and a bottom layer of 1% agar. Plates were incubated at 37 °C for 3 to 4 weeks and then stained with 0.2% crystal violet. […] Comparisons of treatment outcome were tested for statistical significance by using the t-test.

The next assay addresses T2, NUPR1/MSL1 interaction (Homo sapiens, UniProt O60356).
T2 construct: expressed in transfected cells; host or cells: MiaPaCa-2 (human pancreatic cancer cells)
T2 sequence (O60356 1-82): T1 sequence (O60356 1-82)
The experiment in a line: Proximity ligation assay (PLA) of NUPR1-MSL1 interaction after Oxaliplatin-induced DNA damage. Format: cell-based. As to conditions: 1 to 20 μM compound, Oxaliplatin 10 μM, 24 h. Here is the method:
MiaPaCa-2 cells were seeded on coverslips and transfected with 300 ng of DNA (NUPR1-Flag and MSL1-V5) using Fugene HDTM transfection reagent (Roche, Meylan, France). […] Cells were washed twice in PBS, fixed, permeabilized and saturated for 45 min before immunostaining with DuoLink kit (Olink Bioscience, Uppsala, Sweden) following the manufacturer’s protocol. Image acquisition was carried out on a Nikon Eclipse 90i fluorescence microscope (Nikon Instruments, Amsterdam, Netherlands). Images at 40x magnification were analyzed with ImageJ to count the number of red dots which represent NUPR1/MSL1 binding. The reduction in the number of red fluorescent dots is proportional to the inhibition of MSL1-NUPR1 interaction by Compound-15.

In assay [4] the test system is primary murine PDAC cell line WT. The experiment in a line: Cell viability assay, primary murine PDAC cells, NUPR1 wild-type (WT). Format: cell-based, mouse. As to conditions: 6 days. How it is done:
(§1) MiaPaCa-2 cells were obtained from ATCC (Manassas, VA) and maintained in Dulbecco’s Modified Eagle’s Medium (DMEM) (Invitrogen, Carlsbad, CA) supplemented with 10% FBS (Foetal Bovine Serum) at 37 °C with 5% CO2. MiaPaCa-2 cells were authenticated using Short Tandem Repeat analysis (LGC Standards GmbH, Wesel, Germany). […]in reagent (Polyplus-transfection, Illkirch, France) was used to perform siRNA transfections according to the manufacturer’s protocol. Scrambled siRNA targeting no known gene sequence was used as negative control. The sequence of NUPR1-specific siRNA-nupr1 r([…])dTdT was previously reported. Knock-out cells were established in the laboratory from a mice model of pancreatic cancer, known as Pdx1-Cre-Kras^G12D/INK4^flox/flox and for those nupr1 was deleted. These cells have been supplied with DMEM (4.5 g/L) and Glutamax (Life Technologies, Carlsbad, CA), supplemented with 10% of FBS.

Assay [5] relates to primary murine PDAC cell line NUPR1 KO. The experiment in a line: Cell viability assay, primary murine PDAC cells, NUPR1 knocked-out (KO). The format is cell-based, mouse. As to conditions: 6 days. How it is done: as §1
The test system of assay [6] is MiaPaCa-2 cells. The experiment in a line: Real-time iCELLigence impedance proliferation assay. Format: cell-based, human. To be noted: 10 μM Compound-15 vs 60 nM Gemcitabine, 4 μM Oxaliplatin. Here is the method: Cell proliferation was monitored in real-time using the […] system E-Plate (ACEA Biosciences, San Diego, CA). Forty thousand MiaPaCa-2 cells were seeded in each well with fresh DMEM. […] Cells were incubated for another 3 days. The impedance value of each well was automatically monitored by the […] system for 3 days and expressed as a CI (cell index) value.

Assay [7] concerns MiaPaCa-2 cells. The experiment in a line: Wound healing (cell migration) assay. The format is cell-based, human. To be noted: 10 μM, after 48 h.
Protocol: Cells (10000 cells/well) were seeded in 24-well plates and grown to confluence. […] Either fresh medium with 10 μM of the corresponding compound were added or DMSO (as control). Cell migration to the wounded region was observed using an automated fluorescence inverted microscope Leica DMI 6000B with MetaMorph MM AF analysis software (Leica Microsystems, Wetzlar, Germany). Images were captured at 0, 24 and 48 h to monitor the wound healing process. The wound areas were measured using ImageJ software (NIH, Bethesda, MD). Comparisons of treatment outcome were tested for statistical significance by using the t-test. Statistical significance was assumed at a p-value lower than 0.05.
In assay [8] the test system is human PDAC-derived xenografts (MiaPaCa-2). The experiment in a line: Subcutaneous MiaPaCa-2 xenograft in NMRI-Nude mice. Format: in vivo. As to conditions: for Tumor volume: start 400 mm^3. How it is done: NMRI-Foxn1^nu/Foxn1^nu mice were provided by Janvier Laboratories (Le Genest-Saint-Isle, France). Mice were kept within the Experimental Animal House of the Centre de Cancérologie de Marseille (CRCM) pôle Luminy. All experimental protocols were carried out in accordance with nationally approved guidelines for the treatment of laboratory animals. All experimental procedures on animals were approved by the Comité d’éthique de Marseille numéro 14. Ten millions MiaPaCa-2 cells were inoculated subcutaneously and mice were separated into 3 groups of 6 subjects each. Mice were treated daily with either physiologic serum, 5 mg/kg or 10 mg/kg of the compound when the tumor volume reached approximately 400 mm^3. Every 5 days, the weight and the tumors volumes were measured. Mice were sacrificed after 35 days of treatment.

The subject of assay [9] is MiaPaCa-2 cells. The experiment in a line: Cell viability assay (CellTiter-Blue), MiaPaCa-2. As to conditions: Homo sapiens, MIA PaCa-2, 144 h, read-out: Cell viability.
Protocol: Cells (10000 cells/well) were plated in 96-well plates with DMEM. Twenty-four hours later, the media were supplemented with 10 μM of Compound and were incubated for another additional six days. Each experiment was performed in duplicate and repeated at least three times. Cell viability was estimated after addition of the CellTiter-Blue viability reagent (Promega, Madrid, Spain) for 1 h according to the protocol provided by the supplier. Cell viability was measured on day 6 and normalized regarding untreated cells rates. Statistical significance was assumed at a p-value lower than 0.05.

Where a name gives a salt, the structure may show the parent alone.

Molecule `CN1CCN(CCCN2c3ccccc3Sc3ccc(C(F)(F)F)cc32)CC1` [Compound-15, Trifluoperazine dihydrochloride] showed a Kd on NUPR1 [1] (20 mM sodium phosphate pH 7, relative error is 20%) of 5.2 µM. Moreover, on NUPR1 [1] (pH 7), the “ΔG (Gibbs energy of binding)” value was -7.2 kcal/mol. At NUPR1 [1] (pH 7), the ΔH of binding is -1.1 kcal/mol. In addition, the “−TΔS of binding” value at NUPR1 [1] (pH 7) was -6.1 kcal/mol. In addition, on NUPR1 [2], the “Residues of NUPR1 with NMR-cross-peak broadening affected by binding” value is “Ala33; Thr68”. Moreover, in the assay on MiaPaCa-2 cells [3], the Colony formation result is “completely inhibited colony formation”. The “NUPR1 and MSL1 interaction (PLA red dots)” value on NUPR1/MSL1 interaction is “interfered in the NUPR1-MSL1 interaction”. Also, the viability at 10 µM in assay [4] (Mus musculus, 144 h, WT murine cells) came to 35%; in assay [5] (Mus musculus, 144 h, NUPR1 KO murine cells) it was 72%; with MiaPaCa-2 cells [9] it was 26 ± 7%. Moreover, in [4] (difference WT vs KO viability, 10 μM), the NUPR1-dependent effect result is given as “around 37%”. In [5] (from KO cell viability, 10 μM), this molecule displayed an NUPR1-independent killing effect of roughly 28%. Moreover, the “Growth arrest in real-time proliferation compared with Oxaliplatin or Gemcitabine” value with MiaPaCa-2 cells [6] is listed as “stronger growth-arrest”. For the same molecule, the “Distance migrated compared to Compound-free cells” value with MiaPaCa-2 cells [7] stood at 25%. Besides, the “Tumor volume increase compared to the control” value in assay [8] (5 mg/kg daily, two weeks) came out at 50%. For the same molecule, the Tumor volume in assay [8] (5 mg/kg daily, two weeks) is reported as 767 ± 196 mm^3; in [8] (10 mg/kg daily, two weeks), 558 ± 152 mm^3. Further, the Tumor growth result in assay [8] (10 mg/kg daily, up to 4 weeks) was “rapidly, and almost completely, stopped”.

Broadly, the Kd is the concentration at which binding is half-saturated. Read a high Kd as weaker binding. By viability is commonly meant a read-out of living cells in per cent, often relative to untreated cells.

(Values after article PMC5213423, “Identification of a Drug Targeting an Intrinsically Disordered Protein Involved in Pancreatic Adenocarcinoma” (Scientific Reports, 2017).)
